The test system of series [1] is plasma protein. As to the kind of experiment: Plasma protein binding (PPB), equilibrium dialysis, M plasma. It is filed as in vitro ADME, mouse. To be noted: 2 μM, 4 hr dialysis. As to the method: (§1) Assay procedure: 995 μL of blank plasma of various genera were weighed, and 5 μL of assay compound working solution (400 μM) or warfarin working solution (400 μM) was added so that the final concentrations of the assay compound and warfarin in plasma sample were each 2 μM. The samples were mixed thoroughly. The final concentration of DMSO (the organic phase) was 0.5%. 50 μL of the plasma samples of the assay compound and warfarin were pipetted to a sample receiving plate (in triplicate), and the corresponding volume of corresponding blank plasma or buffer was added immediately, so that the final volume in each sample well was 100 μL, wherein the volume ratio of plasma:dialysis buffer was 1:1. 500 μL of stop solution was then added to these samples. These samples were used as T0 samples for determination of recovery and stability. […] All samples were subjected to protein precipitation, and then analyzed by LC/MS/MS. Bound rate and recovery rate of protein were calculated using the following formulae: % Unbound=100*F/T % Bound=100−% Unbound, % Recovery=100*(F+T)/T0 (wherein F is the peak area ratio of the compound in the dialysate after 4 h of dialysis; T is the peak area ratio of the compound in the plasma after 4 h of dialysis; T0 is the peak area ratio of the compound in the plasma sample at time zero).
(In general: Equilibrium dialysis compares concentrations on both sides of a semipermeable membrane.)

Series [2] deals with human colon cancer GP2D xenograft tumor. As to the kind of experiment: In vivo pharmacodynamic study, GP2D xenograft tumor model in Balb/c nude mouse. To be noted: PO. The procedure: An xenograft tumor model in GP2D Balb/c nude mouse:
Assay method: A Balb/c nude mouse model of subcutaneously xenograft tumor of human colon cancer GP2D cells was established. 0.2 mL (2×10^6) of GP2D cells (Matrigel was added, and volume ratio was 1:1) were inoculated subcutaneously on the right back of each mouse. When the average tumor volume reached 149 mm^3, the administration was started by group, with 6 mice in each group. On the day of the assay, the animals were administered the corresponding drugs according to the corresponding groups. The first group G1 was set as a negative control group, which was given 5% DMSO+95%(10% HP-β-CD) alone by gavage administration. The second group G2 to the fifth group G5 were given compound 014, and the dosage and protocol of administration were shown in Table 19.
During the assay, the body weight of animals and the tumor size were measured twice a week. Meanwhile, clinical symptoms of animals were observed and recorded every day. Each administration was referenced to the most recent body weight of animals.
The length (a) and width (b) of a tumor were measured with a digital vernier caliper. The calculation formula of tumor volume (TV) was: TV=a×b^2/2.

Series [3] deals with plasma protein. In words: Plasma protein binding (PPB), equilibrium dialysis, H plasma. Conditions: 2 μM, 4 hr dialysis. The series is classed as in vitro ADME, human. As to the method:
as §1

The target in series [4] is KRAS^G12D binding to c-Raf (Homo sapiens (Human), UniProt P01116, G12D). In words: SOS1-mediated binding of KRAS^G12D to effector protein c-Raf (TR-FRET). The series is classed as biochemical.
Sequence of KRAS^G12D binding to c-Raf (P01116-2 other isoform, or with tags, fused parts or gaps G12D): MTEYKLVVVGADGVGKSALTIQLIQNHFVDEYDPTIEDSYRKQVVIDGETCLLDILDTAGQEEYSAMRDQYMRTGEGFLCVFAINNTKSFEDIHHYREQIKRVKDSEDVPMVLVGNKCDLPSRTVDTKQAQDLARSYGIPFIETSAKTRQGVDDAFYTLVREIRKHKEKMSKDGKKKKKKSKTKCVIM
In series [5] the test system is plasma protein. As to the kind of experiment: Plasma protein binding (PPB), equilibrium dialysis, R plasma. It is filed as in vitro ADME, rat. To be noted: 2 μM, 4 hr dialysis. As to the method: as §1
In a further series the test system is p-ERK in GP2D cells. In words: Assay of p-ERK inhibition in GP2D cells (HTRF). The series is classed as cell-based. To be noted: Homo sapiens, 1 hour incubation. As to the method: 2. Assay Process • 1) GP2D cells were inoculated in a transparent 96-well cell culture plate, and each well contained 80 μL of cell suspension and 8000 cells. The cell plate was inoculated in a carbon dioxide incubator at 37° C. overnight; • 2) 2 μL of the compound was weighed and added to 78 μL of the cell medium. After the mixture was mixed thoroughly, 20 μL of the solution of compound was weighed and added to the corresponding well of the cell plate. The cell plate was placed back to the carbon dioxide incubator and incubated for another 1 hour; • 3) After completion of the incubation, the cell supernatant was discarded. 50 μL of 1× cell lysate was added to each well. The mixture was incubated with shaking at room temperature for 30 minutes; • 4) Phospho-ERK1/2 Eu Cryptate antibody and Phospho-ERK1/2 d2 antibody were diluted 20-fold with detection buffer; • 5) 16 μL of cell lysate supernatant was weighed and added into each well of a new 384 white microwell plate, and then 2 μL of the diluted solution of Phospho-ERK1/2 Eu Cryptate antibody and 2 μL of the diluted solution of Phospho-ERK1/2 d2 antibody dilution were added. The mixture was incubated at room temperature for at least 4 hours; • 6) After completion of the incubation, HTRF was read with multi-label analyzer: excitation: 320 nm, emission: 615 nm, 665 nm; • 7). IC50 of the compounds to be assayed was calculated.
Background: Time-resolved FRET reads energy transfer from a long-lived donor to a nearby acceptor.

Structures are written as SMILES.

With `C#Cc1c(F)ccc2cc(N)cc(-c3ccc4c(N5CC6CCC(C5)N6)nc(OC[C@@]56CCCN5C[C@H](F)C6)nc4c3F)c12` [Compound 014], the “Unbound PPB M” value in the series with plasma protein [1] was 4.5%. The “Tumor volume inhibition rate TGI” value in series [2] (G2, 25 mg/kg, BID*22, at day 14) worked out at 84.2%; in series [2] (G3, 50 mg/kg, BID*22, at day 14), 89.4%; in series [2] (G4, 150 mg/kg, BID*22, at day 14), 97.3%; in series [2] (G5, 150 mg/kg, QD*22), 91.4%. Further, the “Unbound PPB H” value in the series with plasma protein [3] is listed as 18.5%. In addition, the values for the IC50 (in series [4]; in the series on p-ERK in GP2D cells) were 12 nM and 0.43 nM, respectively. In addition, the “Unbound PPB R” value in the series with plasma protein [5] is recorded as 2.0%.

By IC50 is commonly meant the concentration at which inhibition is half-maximal. A higher IC50 goes with a need for much substance.

Values taken from patent publication US20240174692A1, “PYRIMIDINE AROMATIC RING COMPOUNDS” (Medshine Discovery Inc., priority 2021, published 2024).
